Results taken from PubChem BioAssay AID2060903 (Molecular Pharmacology Branch, DTP, NCI, 2025).

Test system: 377384-186-R-J1-PDC complex spheroid viability
Assay: Anticancer human tumor 377384-186-R-J1-PDC patient-derived pancreatic carcinoma cell line growth inhibition [RAS]
Details: for IC50: curve of first compound; for viability, T/C: stronger effect = lower value
Outline: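 Multi-cell-type spheroids: tumor cells plus HUVEC endothelial cells and mesenchymal stem cells. RAS-pathway inhibitors were combined with targeted agents, each dosed in half-log steps down from clinical Cmax, or from 10 microM when Cmax was unknown.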
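Note: spheroids exposed to compounds for seven days before readout.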

Nc1ccn(C2OC(CO)C(O)C2(F)F)c(=O)n1 (configuration not stated) + C=CC(=O)N1CCN(c2nc(OCC3CCCN3C)nc3c(F)c(-c4nc(N)cc(C)c4C(F)(F)F)c(Cl)cc23)C(C)C1
IC50 (second compound 0.00316 µM): 6.73 nM
IC50 (second compound 0.01 µM): 7.09 nM
IC50 (second compound 0.0316 µM): 6.58 nM
IC50 (second compound 0.1 µM): 5.53 nM
IC50 (second compound 0.316 µM): 7.31 nM
IC50 (second compound 1 µM): 6.18 nM
viability, T/C (second compound 0.00316 µM, first compound 0.00316 µM): 76.9%
viability, T/C (second compound 0.00316 µM, first compound 0.01 µM): 35.9%
viability, T/C (second compound 0.00316 µM, first compound 0.0316 µM): 11.5%
viability, T/C (second compound 0.00316 µM, first compound 0.1 µM): 4.72%
viability, T/C (second compound 0.00316 µM, first compound 0.316 µM): 3.54%
viability, T/C (second compound 0.00316 µM, first compound 1 µM): 2.18%
viability, T/C (second compound 0.01 µM, first compound 0.00316 µM): 81.7%
viability, T/C (second compound 0.01 µM, first compound 0.01 µM): 36.5%
viability, T/C (second compound 0.01 µM, first compound 0.0316 µM): 13.4%
viability, T/C (second compound 0.01 µM, first compound 0.1 µM): 4.91%
viability, T/C (second compound 0.01 µM, first compound 0.316 µM): 3.97%
viability, T/C (second compound 0.01 µM, first compound 1 µM): 3.71%
viability, T/C (second compound 0.0316 µM, first compound 0.00316 µM): 74%
viability, T/C (second compound 0.0316 µM, first compound 0.01 µM): 36.3%
viability, T/C (second compound 0.0316 µM, first compound 0.0316 µM): 9.49%
viability, T/C (second compound 0.0316 µM, first compound 0.1 µM): 4.74%
viability, T/C (second compound 0.0316 µM, first compound 0.316 µM): 3.22%
viability, T/C (second compound 0.0316 µM, first compound 1 µM): 2.97%
viability, T/C (second compound 0.1 µM, first compound 0.00316 µM): 60.4%
viability, T/C (second compound 0.1 µM, first compound 0.01 µM): 38.9%
viability, T/C (second compound 0.1 µM, first compound 0.0316 µM): 12%
viability, T/C (second compound 0.1 µM, first compound 0.1 µM): 3.63%
viability, T/C (second compound 0.1 µM, first compound 0.316 µM): 3.27%
viability, T/C (second compound 0.1 µM, first compound 1 µM): 2.81%
viability, T/C (second compound 0.316 µM, first compound 0.00316 µM): 80.5%
viability, T/C (second compound 0.316 µM, first compound 0.01 µM): 38.5%
viability, T/C (second compound 0.316 µM, first compound 0.0316 µM): 13.1%
viability, T/C (second compound 0.316 µM, first compound 0.1 µM): 4.24%
viability, T/C (second compound 0.316 µM, first compound 0.316 µM): 3.5%
viability, T/C (second compound 0.316 µM, first compound 1 µM): 3.38%
viability, T/C (second compound 1 µM, first compound 0.00316 µM): 65.3%
viability, T/C (second compound 1 µM, first compound 0.01 µM): 38.8%
viability, T/C (second compound 1 µM, first compound 0.0316 µM): 16.7%
viability, T/C (second compound 1 µM, first compound 0.1 µM): 5.53%
viability, T/C (second compound 1 µM, first compound 0.316 µM): 4.43%
viability, T/C (second compound 1 µM, first compound 1 µM): 4.1%
